Values of other authors, collected in patent publication US12558353B2 (CELLTAXIS, LLC, priority 2018, dated 2026).
Where two headings read alike, the source gives them in different places.

How the values were obtained:
[1] = system: P. aeruginosa-infected mice; conditions: doses of 0.3 to 100 mg/kg; cited from earlier work
[2] = molecular target: T1, BLT1 receptor (Homo sapiens, UniProt Q15722); conditions: patients with stable CF lung disease, cited from earlier work
T1 construct: host or cells: human CF patients (endogenous receptor)
T1 sequence (Q15722 whole entry): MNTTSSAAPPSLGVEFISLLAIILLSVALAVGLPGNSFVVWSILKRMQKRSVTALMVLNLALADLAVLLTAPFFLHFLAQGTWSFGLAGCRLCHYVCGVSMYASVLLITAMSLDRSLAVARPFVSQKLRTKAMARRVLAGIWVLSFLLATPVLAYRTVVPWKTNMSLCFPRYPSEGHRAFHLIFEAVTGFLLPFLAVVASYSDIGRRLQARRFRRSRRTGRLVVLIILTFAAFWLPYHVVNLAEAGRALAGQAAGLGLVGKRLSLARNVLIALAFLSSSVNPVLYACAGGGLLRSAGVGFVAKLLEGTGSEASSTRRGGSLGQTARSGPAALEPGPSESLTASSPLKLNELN

[3] = system: patients with CF; conditions: high doses, cited from earlier work

SMILES	Mac-1 (CR3) expression [1]	number of neutrophils in the lungs and the airways [1]	serious adverse events leading to early termination of the trial [2]	serious adverse events leading to early termination of the trial ([2]; listed as amelubant)	survival ([3]; children with CF)	lung function decline [3]
CCOC(=O)NC(=N)c1ccc(OCc2cccc(COc3ccc(C(C)(C)c4ccc(O)cc4)cc3)c2)cc1	significantly down-regulated	reduced the number of neutrophils	increase in respiratory serious adverse events	increase in serious pulmonary AEs		
CC(C)Cc1ccc(C(C)C(=O)O)cc1 (stereo not drawn) [ibuprofen]					improves survival	slows lung function decline
